This is an account of results in publication PMC12481569, “Novltex: A New Class of Antibiotics with Potent Activity against Multidrug-Resistant Bacterial Pathogens–Design, Synthesis, and Biological Evaluation” (Journal of Medicinal Chemistry, 2025).

Values after ≈ are worked out from the molar mass of the structure shown. Positions of bridges follow the written chain, without caps; N, C: chain ends. Non-standard residues stand in square brackets, D forms with d. Residues, ends and D or L forms follow the SMILES beside them. dCha = N[C@H](CC1CCCCC1)C(=O)O

One experiment concerns MRSA ATCC 33591. Kind of experiment: microbe, parasite or virus in culture. It counts as cell-based, Staphylococcus aureus. To be noted: Table 2; MHB with 0.002% polysorbate 80, 37 °C, 24 h, two independent duplicates. Here is the method: (§1) MICs were performed as previously reported 4. For MIC testing all peptides were dissolved in DMSO.
Bacterial cultures were grown overnight on Mueller-Hinton Agar (MHA) plates and adjusted to a final inoculum of 10^5 – 10^6 CFU/mL. 100 µl of ino culum in Meuller -Hinton broth (MHB) was mixed with equal volume of peptides (dissolved in MHB) at 2x their concentration in a 96 well plate . For daptomycin MIC determination, the same protocol was followed with the addition of 50 mg/L calcium chloride to the medium. MIC values were determined in the media contain ing polysorbate 80 (0.002%, v/v) to prevent non -specific adsorption of the peptides to plastic surfaces. The final peptides concentrations ranged from 0.0625 – 32 µg/mL. The 96 well plates were then incubated at 37 °C for 24 h. All the experiments were performed in two independent duplicates and the MIC was determined as the lowest concentration in which no visible growth was observed. […]

Experiment [1] in a line: Lipid II binding, spot-on-lawn assays on S. aureus ATCC 33591. Details: species or system Staphylococcus aureus. The following applies: overnight 37 °C. From the text:
6 Spot-on-lawn assays to evaluate binding of Lipid II with analogue 12 on S. aureus ATCC 33591. (A) Analogue 12 was premixed with increasing ratios of lipid II (0.5 to 4 equiv) and spotted onto a seeded lawn of S. aureus 33591. Lipid II and analogue 12 were also spotted independently. The position of the analogue 12–lipid II mixture is marked in red. (B) Daptomycin was used as a negative control. Asterisks denote the positions of analogue 12 (black), lipid II (blue), and daptomycin (green) additions.
Analogue 12 was premixed with increasing ratios of lipid II (0.5 to 4 equiv) for 10 min prior to spotting onto agar plates seeded with a lawn of S. aureus ATCC 33591 and incubated overnight.
XII. Lipid II binding determination of analogue 12
Previously reported methods were used to determine the lipid II binding of analogue 126,7. The lipid II used in this study was prepared by chemical synthesis and its preparation and purification has been […]
A: An overnight culture of S. aureus ATCC 33591 was added to LB agar (45 °C) at a final concentration of 0.1% (vol/vol) and pour-plated into 90 mm petri dishes. Binding of 12 to purified lipid II was assessed using a spot-on-lawn assay. Premixed solutions (5 µL) containing analogue 12 (8 µg) with varying concentration of lipid II were spotted onto the agar, alongside individual controls of 12 and lipid II.
After drying, plates were incubated overnight at 37 °C. This assay was performed in duplicates.
B: To assess the interaction between analogue 12 and lipid II, a culture of S. aureus ATCC 33591 was grown overnight in LB broth and inoculated into LB agar at a final concentration of 1% (v/v) at 45°C.
This mixture was evenly distributed into 90mm petri dishes. Antibiotic inhibition haloes were previously determined by spotting analogue 12 and daptomycin (5 μL,8 µg/mL) onto agar plates and measuring the diameter of the halo after overnight incubation at 37 °C . The binding affinity of analogue 12 and lipid II was later examined by applying purified lipid II (300 μM, 2 μL) to the edge of the antibiotic halo. Analogue 12 and Daptomycin were applied to the inoculated agar plate at a spaced distance, once the antimicrobial solution drops had dried, lipid II was spotted on the edge of the inhibition halo. The plates were then incubated overnight at 37 °C. […]

Experiment [2] concerns Multidrug-Resistant (MDR) E. faecium. Kind of experiment: microbe, parasite or virus in culture. Here is the method:
(§2) We further evaluated analogue 12 against multidrug-resistant (MDR) strains of S. aureus (acquired from the NARSA collection) and MDR E. faecium (acquired from International Health Management Associates, IHMA, Europe Sarl), comparing its activity to various classes of clinically used antibiotics (Table ).
as §1
(§3) Bacterial cultures were grown overnight on Mueller-Hinton Agar (MHA) plates and adjusted to a final inoculum of 10^5 – 10^6 CFU/mL. 100 µl of ino culum in Meuller -Hinton broth (MHB) was mixed with equal volume of peptides (dissolved in MHB) at 2x their concentration in a 96 well plate . For daptomycin MIC determination, the same protocol was followed with the addition of 50 mg/L calcium chloride to the medium. MIC values were determined in the media contain ing polysorbate 80 (0.002%, v/v) to prevent non -specific adsorption of the peptides to plastic surfaces. The final peptides concentrations ranged from 0.0625 – 32 µg/mL. The 96 well plates were then incubated at 37 °C for 24 h. All the experiments were performed in two independent duplicates and the MIC was determined as the lowest concentration in which no visible growth was observed.
(§4) Antibiotics MIC break points ( µg/mL)
(§5) Table. S4: Susceptibility cut-off values (MIC breakpoints) for various clinical antibiotics. […]

For experiment [3], the system named is Multidrug-Resistant (MDR) S. aureus. Kind of experiment: microbe, parasite or virus in culture. The following applies: MHB, 0.002% polysorbate 80, 37 °C, 24 h, daptomycin with 50 mg/L calcium chloride. The procedure: as §2, §1, §3, §4, §5

For the compound `CC(C)C[C@@H]1NC(=O)[C@H](C)NC(=O)[C@H](NC(=O)[C@H](CO)NC(=O)[C@@H](CCCCN)NC(=O)[C@@H](CC2CCCCC2)NC(=O)[C@@H](N)Cc2ccccc2)[C@H](C)OC(=O)[C@H](CC(C)C)NC1=O` [analogue 12, Leu2Cha–Novltex] (H-F[dCha][dK]S[dT]ALL; ester 5-C), in the experiment with MRSA ATCC 33591, the “MIC against MRSA ATCC 33591” value was found to be 0.25 µg/mL (≈ 0.273 µM). For the same compound, in experiment [1] (absence of lipid II, 8 µg spotted, duplicates), the “zone of inhibition, spot-on-lawn” value is “clear and substantial zone of inhibition”. Moreover, the “zone of inhibition, spot-on-lawn, premixed with lipid II” value is listed as “antimicrobial activity was completely abolished” in experiment [1] (lipid II 1:1 ratio, premixed 10 min) and “only a faint zone remained” in experiment [1] (lipid II ratio 0.5, premixed 10 min). The “halo distortion on addition of lipid II” value in experiment [1] (lipid II (300 μM, 2 μL) at the edge of the antibiotic halo, duplicates) is given as “formed a noncircular spot”. Also, the “MIC, Enterococcus faecium 1563254” value in experiment [2] (MDR clinical isolate 1563254, MHB, 0.002% polysorbate 80, 37 °C, 24 h, daptomycin with 50 mg/L calcium chloride) turned out to be 0.25 µg/mL (≈ 0.273 µM). Also, the “MIC, Enterococcus faecium 1581582” value in experiment [2] (MDR clinical isolate 1581582, MHB, 0.002% polysorbate 80, 37 °C, 24 h, daptomycin with 50 mg/L calcium chloride) is 0.5 µg/mL (≈ 0.547 µM). Besides, the “MIC, Enterococcus faecium 1766686” value in experiment [2] (MDR clinical isolate 1766686, MHB, 0.002% polysorbate 80, 37 °C, 24 h, daptomycin with 50 mg/L calcium chloride) came to 0.125 µg/mL (≈ 0.137 µM). The “MIC range against MDR E. faecium strains” value in experiment [2] (range over the three clinical isolates) was 0.125 to 0.5 µg/mL. The “MIC, Staphylococcus aureus NR 45914” value in experiment [3] (MDR strain NR 45914) amounted to 0.125 µg/mL (≈ 0.137 µM). The “MIC, Staphylococcus aureus NR 45926” value in experiment [3] (MDR strain NR 45926) came out at 0.125 µg/mL (≈ 0.137 µM). Besides, the “MIC, Staphylococcus aureus NR 45930” value in experiment [3] (MDR strain NR 45930) is 0.125 µg/mL (≈ 0.137 µM). In addition, in experiment [3] (MDR strain NR 46062), the “MIC, Staphylococcus aureus NR 46062” value was found to be 0.063 µg/mL (≈ 0.0689 µM).
